Measurements from ChEMBL document CHEMBL1201862, “PubChem BioAssay data set” (2004).
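Step 1: Grow cells in 96-well plates. Step 2: Expose to compound for 48 hours at 5 concentrations. Step 3: Interpolate endpoints linearly; if unreached, use highest concentration. The concentration for 50% growth inhibition is given as GI50.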 The source made the active and inactive calls. Cut-off read from the data, not from the text of the source: active = GI50 up to about 1.1 µM and inactive = higher.

What was measured:
Experiment in all cases: DTP human tumour cell line panel, 48 h
[1] = system: SK-MEL-5
[2] = system: COLO 205
[3] = system: MCF7
[4] = system: M14
[5] = system: SNB-75
[6] = system: OVCAR-4
[7] = system: OVCAR-3
[8] = system: CAKI-1
[9] = system: NCI/ADR-RES
[10] = system: NCI-H460
[11] = system: SNB-19
[12] = system: HCC 2998
[13] = system: U-251
[14] = system: HT-29
[15] = system: BT-549
[16] = system: UO-31
[17] = system: UACC-257
[18] = system: T47D
[19] = system: 786-0
[20] = system: NCI-H522
[21] = system: SF-268
[22] = system: DU-145
[23] = system: A549
[24] = system: RXF 393
[25] = system: K562
[26] = system: MOLT-4
[27] = system: TK-10
[28] = system: OVCAR-5
[29] = system: HL-60
[30] = system: SF-539
[31] = system: HOP-62
[32] = system: MDA-N
[33] = system: NCI-H23
[34] = system: HCT-15
[35] = system: RPMI-8226
[36] = system: HCT-116
[37] = system: KM12
[38] = system: ACHN
[39] = system: LOX IMVI
[40] = system: SK-MEL-28
[41] = system: MDA-MB-231
[42] = system: EKVX
[43] = system: IGROV-1
[44] = system: PC-3
[45] = system: SF-295
[46] = system: OVCAR-8
[47] = system: Malme-3M
[48] = system: MDA-MB-435
[49] = system: HOP-92
[50] = system: SW-620
[51] = system: UACC-62
[52] = system: SN12C
[53] = system: SK-MEL-2
[54] = system: A498
[55] = system: CCRF-CEM
[56] = system: SR
[57] = system: Hs-578T

Which GI50 [1] does the source give for `O=C(NCCCCCCCCCCCCNC(=O)Nc1cccc2ccccc12)Nc1cccc2ccccc12` here?
Its GI50 is 20.8 µM (inactive).

And the GI50 [2]?
The GI50 was 20.6 µM (inactive).

And the GI50 [3]?
Its GI50 is 18.3 µM (inactive).

And the GI50 [4]?
The GI50 was 20.1 µM (inactive).

And the GI50 [5]?
Its GI50 is 12.9 µM (inactive).

What about the GI50 [6] of the same compound?
Its GI50 is 11.2 µM (inactive).

What about the GI50 [7] of the same compound?
The GI50 was 16.7 µM (inactive).

And the GI50 [8]?
The GI50 was 17.9 µM (inactive).

And the GI50 [9]?
The GI50 was 24.1 µM (inactive).

What about the GI50 [10] of the same compound?
The GI50 was 15.5 µM (inactive).

What about the GI50 [11] of the same compound?
Its GI50 is 15.1 µM (inactive).

What about the GI50 [12] of the same compound?
Its GI50 is 14.2 µM (inactive).

And the GI50 [13]?
The GI50 was 14.3 µM (inactive).

And the GI50 [14]?
Its GI50 is 21 µM (inactive).

What about the GI50 [15] of the same compound?
Its GI50 is 14.4 µM (inactive).

And the GI50 [16]?
The GI50 was 19.1 µM (inactive).

What about the GI50 [17] of the same compound?
The GI50 was > 10 µM (inactive).

And the GI50 [18]?
Its GI50 is 19.1 µM (inactive).

What about the GI50 [19] of the same compound?
Its GI50 is 13.5 µM (inactive).

What about the GI50 [20] of the same compound?
Its GI50 is 13.7 µM (inactive).

And the GI50 [21]?
The GI50 was 14.3 µM (inactive).

What about the GI50 [22] of the same compound?
The GI50 was 24.3 µM (inactive).

What about the GI50 [23] of the same compound?
Its GI50 is 18.2 µM (inactive).

And the GI50 [24]?
Its GI50 is 15.2 µM (inactive).

What about the GI50 [25] of the same compound?
Its GI50 is 20.2 µM (inactive).

What about the GI50 [26] of the same compound?
The GI50 was 20.3 µM (inactive).

And the GI50 [27]?
Its GI50 is 17.7 µM (inactive).

What about the GI50 [28] of the same compound?
Its GI50 is 25.2 µM (inactive).

What about the GI50 [29] of the same compound?
Its GI50 is 18.2 µM (inactive).

What about the GI50 [30] of the same compound?
The GI50 was 13.2 µM (inactive).

What about the GI50 [31] of the same compound?
The GI50 was 6.15 µM (inactive).

What about the GI50 [32] of the same compound?
The GI50 was 17.4 µM (inactive).

And the GI50 [33]?
Its GI50 is 16.8 µM (inactive).

And the GI50 [34]?
The GI50 was 18.4 µM.

What about the GI50 [35] of the same compound?
The GI50 was 19.5 µM (inactive).

And the GI50 [36]?
The GI50 was 17.5 µM (inactive).

What about the GI50 [37] of the same compound?
Its GI50 is 18.4 µM (inactive).

What about the GI50 [38] of the same compound?
Its GI50 is 14 µM (inactive).

And the GI50 [39]?
The GI50 was 18 µM (inactive).

And the GI50 [40]?
The GI50 was 19.5 µM (inactive).

What about the GI50 [41] of the same compound?
The GI50 was 20.7 µM (inactive).

And the GI50 [42]?
Its GI50 is 19.1 µM (inactive).

What about the GI50 [43] of the same compound?
Its GI50 is 18.4 µM (inactive).

And the GI50 [44]?
Its GI50 is 16.2 µM (inactive).

What about the GI50 [45] of the same compound?
The GI50 was 14.1 µM (inactive).

And the GI50 [46]?
Its GI50 is 22.9 µM (inactive).

What about the GI50 [47] of the same compound?
The GI50 was 15.3 µM (inactive).

What about the GI50 [48] of the same compound?
Its GI50 is 17.9 µM (inactive).

And the GI50 [49]?
The GI50 was 12.1 µM (inactive).

What about the GI50 [50] of the same compound?
The GI50 was 17.4 µM (inactive).

What about the GI50 [51] of the same compound?
Its GI50 is 12.6 µM (inactive).

And the GI50 [52]?
The GI50 was 17.6 µM (inactive).

And the GI50 [53]?
Its GI50 is 15.2 µM (inactive).

What about the GI50 [54] of the same compound?
The GI50 was 16.9 µM (inactive).

What about the GI50 [55] of the same compound?
The GI50 was 16.6 µM (inactive).

What about the GI50 [56] of the same compound?
Its GI50 is 16.7 µM (inactive).

What about the GI50 [57] of the same compound?
Its GI50 is 14.7 µM (inactive).
